In patent US4049497A (priority 1974, dated 1977):
Values joined by “and” are separate entries in the source; they are usually repeats but may differ in a detail not shown here. Equal values may be shown once.

Legend:
[1] = system: Staphylococcus aureus Smith; test: Minimum inhibitory concentration on nutrient agar plates, 37° C., 17 hours; assay type: cell-based
[2] = system: Staphylococcus aureus 209P; test: as above; assay type: cell-based
[3] = system: Klebsiella pneumoniae PCI 602; test: as above; assay type: cell-based
Escherichia coli NIHJ = test: as above; assay type: cell-based
Escherichia coli K-12 = test: as above; assay type: cell-based
[4] = system: Pseudomonas aeruginosa No. 12; test: as above; assay type: cell-based
[5] = system: Bacillus subtilis PCI 219; test: as above; assay type: cell-based
Escherichia coli W677 = test: as above; assay type: cell-based
[6] = system: Escherichia coli JR66/W677; test: as above; assay type: cell-based
[7] = system: Aeromonas salmonecida ATCC 14174; test: as above; assay type: cell-based
[8] = system: Vibrio anguillarum NCBM 6; test: as above; assay type: cell-based
Saccharomyces cerevisiae = test: Minimum inhibitory concentration on nutrient agar plates with 1% glucose, 27° C., 40 hours; assay type: cell-based
Candida albicans 3147 = test: as above; assay type: cell-based
Aspergillus niger = test: as above; assay type: cell-based
Piricularia oryzae = assay type: cell-based
Xanthomonas citri = test: Minimum inhibitory concentration on nutrient agar plates, 37° C., 17 hours; assay type: cell-based
Xanthomonas oryzae = assay type: cell-based; details: 37° C., 17 hours
leukemia L-1210 cells = test: Chemotherapeutic effect against leukemia L-1210 in mice (survival); assay type: in vivo, mice (CDF 1 strain); details: i.p. once daily for 10 days
[9] = system: various bacteria and fungi; test: Antibacterial and antifungal spectrum (overall); assay type: cell-based
[10] = system: Staphylococcus aureus or Escherichia coli; test: Standard cup-plate assay of potency
[11] = Partition between n-butanol and water; details: pH value of 2 to 7
[12] = Acute toxicity, intraperitoneal injection in mice; details: for toxicity: animal and man, as shown by LD50 in mice; for LD50: mice, intraperitoneal, 0.25-0.5% in 10% dimethylsulfoxide-water
[13] = Stability of activity in 50% aqueous ethanol, room temperature, 16 hours; storage and methanol stability; details: for stability in 50% aqueous ethanol: 50% aqueous ethanol of pH 2.5; for activity reduced to: 50% aqueous ethanol of pH 2.5, room temperature, 16 hours; for stability as solid powder: cold and dark place
[14] = isolated colorless powder (Examples 3-6)

Structure (SMILES)	Minimum Inhibitory Concentration [1] [Mcg./ml.]	Minimum Inhibitory Concentration [2] [Mcg./ml.]	Minimum Inhibitory Concentration [3] [Mcg./ml.]	Minimum Inhibitory Concentration (Escherichia coli NIHJ) [Mcg./ml.]	Minimum Inhibitory Concentration (Escherichia coli K-12) [Mcg./ml.]	Minimum Inhibitory Concentration [4] [Mcg./ml.]	Minimum Inhibitory Concentration [5] [Mcg./ml.]	Minimum Inhibitory Concentration (Escherichia coli W677) [Mcg./ml.]	Minimum Inhibitory Concentration [6] [Mcg./ml.]	Minimum Inhibitory Concentration [7] [Mcg./ml.]	Minimum Inhibitory Concentration [8] [Mcg./ml.]	Minimum Inhibitory Concentration (Saccharomyces cerevisiae) [Mcg./ml.]	Minimum Inhibitory Concentration (Candida albicans 3147) [Mcg./ml.]	Minimum Inhibitory Concentration (Aspergillus niger) [Mcg./ml.]	Minimum Inhibitory Concentration (Piricularia oryzae) [Mcg./ml.]	Minimum Inhibitory Concentration (Xanthomonas citri) [Mcg./ml.]	Minimum Inhibitory Concentration (Xanthomonas oryzae) [Mcg./ml.]	effects on the survival ratio (leukemia L-1210 cells)	antibacterial and antifungal activity [9]	potency [10, 14]	further results
COc1cc2c(cc1O)N=C[C@@H]1CC[C@@H](O)N1C2=O [neothramycin B]	100	> 100	100	100	100	> 100	> 100	100	> 100	50	100	> 100	> 100	> 100	> 100	> 100	100	highly favorable effects	low antibacterial and antifungal activity	620 u./mg. and 835 u./mg.	partition coefficient in n-butanol/water [11]: greater than 5; toxicity [12]: low toxicity; LD50 [12]: 20 to 30 mg/kg; stability in 50% aqueous ethanol [13]: unstable; activity reduced to [13]: 22%; stability as solid powder [13]: stable for a long period of time
COc1cc2c(cc1O)N=C[C@@H]1CC[C@H](O)N1C2=O [neothramycin A]	50	> 100	50	100	100	> 100	100	50	100	25	50	50	> 100	100	50	> 100	50	highly favorable effects	low antibacterial and antifungal activity	1000 u./mg.	potency ([10]; pure neothramycin A from Example 3 as authentic sample): 1000 units per mg; partition coefficient in n-butanol/water [11]: greater than 5; toxicity [12]: low toxicity; LD50 [12]: 20 to 30 mg/kg; stability in 50% aqueous ethanol [13]: unstable; activity reduced to [13]: 25%; stability as solid powder [13]: stable for a long period of time
